The values that follow come from patent US11311576B2, “Methods of use for CAR T cells” (Seattle Children's Hospital, priority 2018, dated 2022).

The subject of series [1] is HOS-FRα tumor. As to the kind of experiment: CRS toxicity and sodium fluorescein rescue in HOS-FRα tumor-bearing mice. Format: in vivo. The conditions noted are these: ~2.5 million CD8 and ~33 million CD4 E2 CAR-T cells; days 4 and 11, after EC17 500 and 100 nmol/kg on days 3 and 10. How it is done: All animal care and use were performed according to NIH guidelines and in compliance with protocols approved by the Purdue University Animal Use and Care Committee. Female 4 to 5-week-old NOD/SCID gamma (NSG™) mice (stock number: 005557) were purchased from The Jackson Laboratory (Bar Harbor, Me.). Unless specifically indicated, all animals were maintained on a FA-deficient diet (TestDiet, St. Louis, Mo.) upon arrival and throughout the study. To establish subcutaneous xenografts, MDA-MB-231 and HOS-FRα were implanted in the right flank region at 2.5×10^6 and 1×10^6 cells per animal, respectively. For intravenous xenografts, THP1-FRb cells were inoculated at 5×10^6 cells per animal. Subcutaneous tumors were measured 2-3 times per week with a caliper and calculated using the ellipsoidal formula […]. […] All animal doses (CAR-T cells, EC17, sodium fluorescein) were given intravenously.
Depending on the CAR-T cell dose and how EC17 is administered, tumor-bearing mice receiving FITC-specific CAR-T cells can experience severe CRS and varying degrees of body weight loss. […] On the days immediately following each EC17 dose, animals were scored and rescue agents such as sodium fluorescein, folic acid and leucovorin were used to mitigate CRS toxicity. […]

The subject of series [2] is HOS-FRα. As to the kind of experiment: CAR-T cell activation markers (CD69, CD137, PD1) after 24 h co-culture with EC17-preloaded targets. The series is classed as cell-based, human. Particulars: targets preloaded with 100 nM EC17 30 min, E/T 1:1, 24 hours. As to the method:
(§1) To study CAR-T cell activation in the presence of FR+ tumor cell targets (FIG. 53), co-culture experiments were initially carried out with MDA-MB-231, THP1-FRβ and HOS-FRα. […] After 24 hours of co-culture, the surface expression of T cell activation markers CD69, CD137 (4-1BB), and PD1 were analyzed by flow cytometry. For T cell exhaustion studies (FIG. 54), FR+(KB, MDA-MB-231, HOS-FRα^fLuc, THP1-FRβ) and FR-negative (HOS-143b^fLuc, THP1-FG12) tumor cell lines were used as targets. Here, target cells were incubated on day 0 without or with 0.1 and 10 nM of EC17 for 30 min at 37° C. and the status of EC17 “pre-loading” was assessed by counterstaining cell-surface EC17 with an anti-FITC antibody (FIG. 61A). Three days later, the surface expression of PD1, LAG3, and TIM3 inhibitor receptors on co-cultured CAR-T cells were analyzed and higher frequencies of double- and triple-positive cells were considered approaching an exhausted phenotype.
(§2) To examine antigen-dependent CAR-T cell activation, MDA-MB-231, THP1-FRβ and HOS-FRα cells were preloaded with 100 nM EC17 over 30 min. […] After 24 hours of co-culture, we measured the surface expression of T cell activation markers CD69, CD137 (4-1BB) and PD1 (FIG. 53). […] Importantly, the mock controls T cells were not activated under these conditions. Some FR+ tumor types (e.g. KB) display a natural resistance to killing by EC17-directed CAR T cells (FIGS. 56, 58, 59, and 60), we studied T cell activation versus exhaustion as a mechanism of EC17 CAM action. Both FR+(KB, MDA-MB-231, HOS-FRα^fLuc, THP1-FRβ) and FR-negative (HOS-143b^fLuc, THP1-FG12) tumor cell lines were chosen for this purpose. HOS-FRα^fLuc expressed ˜5.6× lower level of functional FR than its parent HOS-FRα, and HOS-143b^fLuc was FR-negative similar to HOS-143b (FIG. 59A). […] Three days later, co-cultured CAR-T cells were measured for upregulation and co-expression of T cell activation/exhaustion markers PD1, LAG3 and TIM3. […]

Series [3] relates to MDA-MB-231. The description is as above. The conditions noted are these: targets preloaded with 100 nM EC17 30 min, E/T 1:1, 24 hours. The series is classed as cell-based, human. As to the method: as §1, §2
The subject of series [4] is THP1-FRb. Described as above. The conditions noted are these: targets preloaded with 100 nM EC17 30 min, E/T 1:1, 24 hours. The series is classed as cell-based, human. As to the method:
as §1, §2

Consider `NC1=NC2N=CC(CNc3ccc(C(=O)N[C@@H](CCC(=O)NCCNC(=S)Nc4ccc(-c5c6ccc(=O)cc-6oc6cc(O)ccc56)c(C(=O)O)c4)C(=O)O)cc3)=NC2C(=O)N1` (stereo partly shown) [EC17, FA-(g)-ethylenediamine-FITC], for which the CRS grade in series [1] was 1-2. In addition, the “CAR-T cell activation (CD69, CD137, PD1)” value in series [2] is “strong activators of our CAR-T cells”; in series [3], “strong activators of our CAR-T cells”; in series [4] it was “did trigger CAR-T cell activation, but at lower levels”.
